# Data taken from ChEMBL document CHEMBL1156737, “Terpenoids. III: Synthesis and biological evaluation of 23-hydroxybetulinic acid derivatives as novel inhibitors of glycogen phosphorylase” (Bioorg Med Chem Lett, 2009).
# Target: T1, Glycogen phosphorylase, muscle form (Oryctolagus cuniculus, UniProt P00489)
# T1 sequence (P00489 whole entry): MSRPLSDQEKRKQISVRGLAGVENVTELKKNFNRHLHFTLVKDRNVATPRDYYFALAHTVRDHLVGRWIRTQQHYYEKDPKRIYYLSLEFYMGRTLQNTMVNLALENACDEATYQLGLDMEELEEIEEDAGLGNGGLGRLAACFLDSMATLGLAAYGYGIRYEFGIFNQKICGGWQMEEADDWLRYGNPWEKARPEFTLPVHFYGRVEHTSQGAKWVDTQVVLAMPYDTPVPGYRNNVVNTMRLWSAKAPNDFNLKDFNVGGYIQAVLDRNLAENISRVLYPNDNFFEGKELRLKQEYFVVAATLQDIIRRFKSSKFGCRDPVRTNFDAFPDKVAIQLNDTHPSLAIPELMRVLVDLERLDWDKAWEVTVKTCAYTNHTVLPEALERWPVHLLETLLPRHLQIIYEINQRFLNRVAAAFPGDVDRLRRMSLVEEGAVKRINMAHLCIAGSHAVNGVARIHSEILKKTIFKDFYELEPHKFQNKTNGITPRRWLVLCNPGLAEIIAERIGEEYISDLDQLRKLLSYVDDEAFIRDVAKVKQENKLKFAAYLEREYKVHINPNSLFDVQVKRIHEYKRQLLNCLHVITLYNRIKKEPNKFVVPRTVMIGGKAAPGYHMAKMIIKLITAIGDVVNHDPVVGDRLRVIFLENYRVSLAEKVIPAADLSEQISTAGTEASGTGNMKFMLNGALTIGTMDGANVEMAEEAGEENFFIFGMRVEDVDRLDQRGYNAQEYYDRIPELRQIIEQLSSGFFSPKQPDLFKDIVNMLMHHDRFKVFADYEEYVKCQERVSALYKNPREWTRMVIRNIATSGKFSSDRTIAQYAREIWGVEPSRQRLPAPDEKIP
# Experiment: Inhibition of rabbit muscle glycogen phosphorylase A assessed as release of phosphate from glucose-1-phosphate after 25 mins
# Conditions: not given; call rule not given here
row,IC50,Structure (SMILES)
1,Not Active,C=C(C)[C@@H]1CC[C@]2(C(=O)NCCCC)CC[C@]3(C)[C@H](CC[C@@H]4[C@@]5(C)CC[C@H](OC(=O)C(=O)NCCCC)[C@@](C)(COC(=O)C(=O)NCCCC)[C@@H]5CC[C@]43C)[C@@H]12

# Same assay, conditions: read-out: IC50
row,IC50,Structure (SMILES)
1,30.1 µM,C=C(C)[C@@H]1CC[C@]2(COC(=O)C(=O)OC)CC[C@]3(C)[C@H](CC[C@@H]4[C@@]5(C)CC[C@H](OC(=O)C(=O)OC)[C@@](C)(COC(=O)C(=O)OC)[C@@H]5CC[C@]43C)[C@@H]12
2,19.1 µM,C=C(C)[C@@H]1CC[C@]2(COC(=O)C(=O)OCC#CCO)CC[C@]3(C)[C@@H](CC[C@@H]4[C@@]5(C)CC[C@H](OC(=O)C(=O)OCC#CCO)[C@@](C)(COC(=O)C(=O)OCC#CCO)[C@@H]5CC[C@]43C)C12 (some centres undefined)
3,23.8 µM,C=C(C)[C@@H]1CC[C@]2(C(=O)NCCCN)CC[C@]3(C)[C@H](CC[C@@H]4[C@@]5(C)CC[C@H](O)[C@@](C)(CO)[C@@H]5CC[C@]43C)[C@@H]12
4,129 µM,C=C(C)[C@@H]1CC[C@]2(C(=O)NCC(=O)N[C@@H](Cc3ccccc3)C(=O)O)CC[C@]3(C)[C@H](CC[C@@H]4[C@@]5(C)CC[C@H](O)[C@@](C)(CO)[C@@H]5CC[C@]43C)[C@@H]12
5,69.1 µM,C=C(C)[C@@H]1CC[C@]2(C(=O)OCCCCCC)CC[C@]3(C)[C@H](CC[C@@H]4[C@@]5(C)CC[C@H](O)[C@@](C)(CO)[C@@H]5CC[C@]43C)[C@@H]12
6,34.7 µM,C=C(C)[C@@H]1CC[C@]2(COC(=O)C(=O)NCCCC)CC[C@]3(C)[C@H](CC[C@@H]4[C@@]5(C)CC[C@H](OC(=O)C(=O)NCCCC)[C@@](C)(COC(=O)C(=O)NCCCC)[C@@H]5CC[C@]43C)[C@@H]12
7,34.1 µM,C=C(C)[C@@H]1CC[C@]2(C(=O)NCCCCCCNC(C)=O)CC[C@]3(C)[C@H](CC[C@@H]4[C@@]5(C)CC[C@H](OC(C)=O)[C@@](C)(COC(C)=O)[C@@H]5CC[C@]43C)[C@@H]12
8,3.5 µM,C=C(C)[C@@H]1CC[C@]2(C(=O)NCCCCCCN)CC[C@]3(C)[C@H](CC[C@@H]4[C@@]5(C)CC[C@H](OC(C)=O)[C@@](C)(COC(C)=O)[C@@H]5CC[C@]43C)[C@@H]12
9,10.2 µM,C=C(C)[C@@H]1CC[C@]2(C(=O)NCCCCCCN)CC[C@]3(C)[C@H](CC[C@@H]4[C@@]5(C)CC[C@H](O)[C@@](C)(CO)[C@@H]5CC[C@]43C)[C@@H]12
10,96.6 µM,C=C(C)[C@@H]1CC[C@]2(C(=O)OCCN(CCCCCCNC(C)=O)C(C)=O)CC[C@]3(C)[C@H](CC[C@@H]4[C@@]5(C)CC[C@H](OC(C)=O)[C@@](C)(COC(C)=O)[C@@H]5CC[C@]43C)[C@@H]12
11,69.2 µM,C=C(C)[C@@H]1CC[C@]2(C(=O)OCCCCCCOC(=O)c3ccccc3C(=O)O)CC[C@]3(C)[C@H](CC[C@@H]4[C@@]5(C)CC[C@H](OC(C)=O)[C@@](C)(COC(C)=O)[C@@H]5CC[C@]43C)[C@@H]12
12,55.6 µM,C=C(C)[C@@H]1CC[C@]2(C(=O)NCCCCCCN(CC)CC)CC[C@]3(C)[C@H](CC[C@@H]4[C@@]5(C)CC[C@H](OC(C)=O)[C@@](C)(COC(C)=O)[C@@H]5CC[C@]43C)[C@@H]12
13,72.8 µM,C=C(C)[C@@H]1CC[C@]2(C(=O)NCCCN(CC)CC)CC[C@]3(C)[C@H](CC[C@@H]4[C@@]5(C)CC[C@H](OC(C)=O)[C@@](C)(COC(C)=O)[C@@H]5CC[C@]43C)[C@@H]12
14,289 µM,C=C(C)[C@@H]1CC[C@]2(C(=O)OCCBr)CC[C@]3(C)[C@H](CC[C@@H]4[C@@]5(C)CC[C@H](O)[C@@](C)(CO)[C@@H]5CC[C@]43C)[C@@H]12
15,35.9 µM,C=C(C)[C@@H]1CC[C@]2(COC(=O)C(=O)NC(C)C)CC[C@]3(C)[C@H](CC[C@@H]4[C@@]5(C)CC[C@H](OC(=O)C(=O)NC(C)C)[C@@](C)(COC(=O)C(=O)NC(C)C)[C@@H]5CC[C@]43C)[C@@H]12
16,103 µM,C=C(C)[C@@H]1CC[C@]2(C(=O)NCC(=O)OC)CC[C@]3(C)[C@H](CC[C@@H]4[C@@]5(C)CC[C@H](OC(C)=O)[C@@](C)(COC(C)=O)[C@@H]5CC[C@]43C)[C@@H]12
17,54.8 µM,C=C(C)[C@@H]1CC[C@]2(C(=O)NCCCCCCNC(=O)/C=C/C(=O)O)CC[C@]3(C)[C@H](CC[C@@H]4[C@@]5(C)CC[C@H](OC(C)=O)[C@@](C)(COC(C)=O)[C@@H]5CC[C@]43C)[C@@H]12
18,67.7 µM,C=C(C)[C@@H]1CC[C@]2(C(=O)NCC(=O)O)CC[C@]3(C)[C@H](CC[C@@H]4[C@@]5(C)CC[C@H](O)[C@@](C)(CO)[C@@H]5CC[C@]43C)[C@@H]12
19,97.8 µM,C=C(C)[C@@H]1CC[C@]2(COC(=O)CCC(=O)O)CC[C@]3(C)[C@H](CC[C@@H]4[C@@]5(C)CC[C@H](OC(=O)CCC(=O)O)[C@@](C)(COC(=O)CCC(=O)O)[C@@H]5CC[C@]43C)[C@@H]12
20,40.6 µM,C=C(C)[C@@H]1CC[C@]2(C(=O)NCC(=O)N[C@@H](Cc3ccccc3)C(=O)OC)CC[C@]3(C)[C@H](CC[C@@H]4[C@@]5(C)CC[C@H](O)[C@@](C)(CO)[C@@H]5CC[C@]43C)[C@@H]12
21,143 µM,C=C(C)[C@@H]1CC[C@]2(COC(C)=O)CC[C@]3(C)[C@H](CC[C@@H]4[C@@]5(C)CC[C@H](OC(C)=O)[C@@](C)(COC(C)=O)[C@@H]5CC[C@]43C)[C@@H]12
22,15.2 µM,C=C(C)[C@@H]1CC[C@]2(C(=O)NCCCN)CC[C@]3(C)[C@H](CC[C@@H]4[C@@]5(C)CC[C@H](OC(C)=O)[C@@](C)(COC(C)=O)[C@@H]5CC[C@]43C)[C@@H]12
23,50.4 µM,C=C(C)[C@@H]1CC[C@]2(C(=O)OC3CCCCC3)CC[C@]3(C)[C@H](CC[C@@H]4[C@@]5(C)CC[C@H](O)[C@@](C)(CO)[C@@H]5CC[C@]43C)[C@@H]12
24,94.5 µM,C=C(C)[C@@H]1CC[C@]2(C(=O)OCC#CCOC(=O)CCC(=O)O)CC[C@]3(C)[C@H](CC[C@@H]4[C@@]5(C)CC[C@H](OC(C)=O)[C@@](C)(COC(C)=O)[C@@H]5CC[C@]43C)[C@@H]12
25,29.5 µM,C=C(C)[C@@H]1CC[C@]2(C(=O)NCCCCCCNCC)CC[C@]3(C)[C@H](CC[C@@H]4[C@@]5(C)CC[C@H](OC(C)=O)[C@@](C)(COC(C)=O)[C@@H]5CC[C@]43C)[C@@H]12
26,194 µM,C=C(C)[C@@H]1CC[C@]2(C(=O)NCCCCCCNC(=O)CCC(=O)O)CC[C@]3(C)[C@H](CC[C@@H]4[C@@]5(C)CC[C@H](OC(C)=O)[C@@](C)(COC(C)=O)[C@@H]5CC[C@]43C)[C@@H]12
27,194 µM,C=C(C)[C@@H]1CC[C@]2(C(=O)OCC#CCO)CC[C@]3(C)[C@H](CC[C@@H]4[C@@]5(C)CC[C@H](O)[C@@](C)(CO)[C@@H]5CC[C@]43C)[C@@H]12

row,Structure (SMILES),IC50
1,C=C(C)[C@@H]1CC[C@]2(C(=O)O)CC[C@]3(C)[C@H](CC[C@@H]4[C@@]5(C)CC[C@H](O)[C@@](C)(CO)[C@@H]5CC[C@]43C)[C@@H]12,103 µM
